US7199159B2, “Use of biguanide derivatives for making a medicine having a wound healing effect” (Centre National de la Recherche Scientifique (C.N.R.S.), priority 2000, dated 2007)

Test system: skin wounds reproducing ulceration
Assay: cicatrization of punch skin wounds (pseudo-ulcer) treated daily with metformin ointment
Assay type: in vivo, Zucker fa/fa rats
Protocol: The efficacy of metformin was tested in vivo on skin wounds reproducing ulceration. The pseudo-ulcer was produced on 14-week-old Zucker fa/fa rats by loss of matter of circular shape 8 mm in diameter made by a “punch”, down to the muscle layer. […] The speed of the cicatrization was evaluated by determining the area of the wounds with a video camera coupled to a computer equipped with image analysis software.
Furthermore, metformin at a concentration of 1% by weight relative to the lipophilic phase also appears to exert an effect on neovascularizaton.
The results of the microscopic analysis of histological sections of the wounds are collated in Table 1 below.

With `CN(C)C(=N)N=C(N)N` [metformin] the “collagen density in granulation tissue” value (FIG. 3, D4) was “increase in the collagen density”, the “cicatrization (area of the wounds by image analysis)” value (daily treatment, ointment at different metformin concentrations) was “significant improvement in cicatrization” and the “epidermization compared with untreated control animals” value (different metformin concentrations) was “acceleration of epidermization”. For the same compound, the “closure of the treated wounds vs untreated control wounds” value (four metformin concentrations, FIG. 2) was “closure of the treated wounds is faster than of the untreated control wounds”, the “neovascularization (density of blood capillaries on the edges of the wound)” value (metformin 1%, D5, treated vs control rats) was “greater density of blood capillaries on the edges of the wound” and the “cicatrizing action, dose-response study” value (ointment with metformin at 0.02%, 0.1%, and 2%) was “cicatrizing action for all the concentrations tested”. For the same compound, the “speed of maturation of granulation tissue” value (rat, in vivo) was “significantly increases the speed of maturation of granulation tissue”.
